Results from publication PMC11662004 (Communications Chemistry, 2024).
Values joined by “and” are separate entries in the source; they are usually repeats but may differ in a detail not shown here. Equal values may be shown once. Read-outs that look alike come from different tables or passages of the source.

What was measured:
[1] = target: T1, NgTet1 (Naegleria gruberi, UniProt D2W6T1); assay: biochemical; conditions: for potency change in the presence of non-substrate 5HC DNA: uncoupled 2OG turnover; for IC50: 5 μM NgTet1, 50 μM 2OG
T1 construct: His6-tagged full-length Naegleria gruberi NgTet1 (321 a. a.) protein with a thrombin cleavage site; made in house; host or cells: E. coli BL21(DE3)
T1 sequence (D2W6T1 1-321): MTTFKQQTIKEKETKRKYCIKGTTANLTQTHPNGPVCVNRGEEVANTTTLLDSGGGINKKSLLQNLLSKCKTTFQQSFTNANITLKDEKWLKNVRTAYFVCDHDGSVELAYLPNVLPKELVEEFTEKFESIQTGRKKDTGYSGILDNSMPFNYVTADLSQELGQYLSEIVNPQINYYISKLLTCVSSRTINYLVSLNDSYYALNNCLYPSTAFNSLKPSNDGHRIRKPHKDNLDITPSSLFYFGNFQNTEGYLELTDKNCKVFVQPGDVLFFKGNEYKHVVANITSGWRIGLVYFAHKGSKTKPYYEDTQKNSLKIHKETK
Protocol: (§1) Activity was normalised against reactions containing vehicle (DMSO). […] AS data shown as the mean of three experimental replicates (n = 3; mean ± SD); ^1H NMR data plotted from two independent replicates (n = 2); tabulated data reported as the mean of two and three independent replicates for ^1H NMR and AS, respectively (n = 2–3, SD reported for n = 3). N. d.: not determined; AS: AlphaScreen.
All ^1H NMR spectra were recorded at 25 °C using D2O as a reference for internal deuterium lock on a Bruker Avance III 700 MHz equipped with an inverse TCI cryoprobe in 3 or 5 mm diameter tubes with a total sample volume of 160 or 565 μL, respectively. The water signal was reduced using Perfect Echo excitation sculpting suppression. Chemical shifts are reported in ppm relative to D2O (δH = 4.70 ppm).
NgTet1 was pre-incubated with inhibitor dilution series in DMSO-d6 at room temperature for 10 min (50 mM Tris-d11 [pH 7.5], 2% v/v DMSO-d6). Reactions were initiated by the addition of appropriate cofactors and DNA. […] The reactions were quenched by the addition of 9 mM NOG and 9 mM ZnCl2 in 90 mM Tris-d11 [pH 7.5] (20 μL) within the enzyme linear activity window (determined in Figure. S10). Samples were transferred to NMR tubes and subjected to ^1H NMR analysis. Data were processed as described above. Inhibition data was normalised to reactions containing vehicle only (1% v/v DMSO-d6) and fitted using “log(inhibitor) vs. response - Variable slope (four parameters)” non-linear regression model on GraphPad Prism 5.
Activity was normalised against reactions containing vehicle only (100% activity). Data is shown as the mean of 2 independent replicates (n = 2; […]
Fig. S10 Determination of linear NgTet1 enzymatic activity windows for inhibitor characterisation. a 1H NMR succinate detection time courses with no DNA, 5HC DNA (double- […]
complementary 5'-ACC AC5mC GGT GGT-3'). b AlphaScreen 5hmC detection time course using […]
courses shown. 1H NMR reaction conditions: 5 μM NgTet1, 2 mM sodium L-ascorbate, 100 μM […]
v/v D2O. DNA was added to a final concentration of 20 μM of double-stranded DNA. […]

[2] = target: T1, NgTet1; assay: biochemical; conditions: for normalised activity, %: AlphaScreen
Protocol: (Fig. 5a), were screened for inhibitory activity against NgTet1.
as §1
Compounds in DMSO (100 nL) were pre-dispensed in a logarithmically linear concentration gradient onto 384-well ProxiPlates using an Echo® 550 acoustic liquid handler (Labcyte). NgTet1 was pre-incubated with the inhibitor dilution series in DMSO at room temperature for 10 min. Reactions were initiated by the addition of appropriate cofactors and DNA. […] The reactions were quenched by the addition of 30 mM EDTA (pH 4.2), 358 mM NaCl (5 μL) within the enzyme linear activity window (determined in Fig. S10). Concurrently, a mixture containing the anti-^5hmC antibody (1:2000 dilution) and AlphaScreen beads (1:62.5 dilution) in assay buffer was prepared and incubated at room temperature for 30 min. The AlphaScreen bead/antibody mixture was added to the quenched NgTet1 reactions (5 μL), and the complete mixture was incubated at room temperature for 1 h. Chemiluminescence was measured on a PHERAstar FS/FSX (BMG Labtech) equipped with an AlphaScreen 680 570 module. All AlphaScreen bead manipulations were performed under subdued lighting. Inhibition data was normalised to reactions containing vehicle only (1% v/v DMSO) and fitted using “log(inhibitor) vs. response—Variable slope (four parameters)” non-linear regression model on GraphPad Prism 5.

[3] = 5HC DNA, NMR, -Log[inhibitor] (M) 3
[4] = 5HC DNA, NMR, -Log[inhibitor] (M) 4
[5] = 5HC DNA, NMR, -Log[inhibitor] (M) 4.5
[6] = 5HC DNA, NMR, -Log[inhibitor] (M) 5
[7] = 5HC DNA, NMR, -Log[inhibitor] (M) 5.5
[8] = 5HC DNA, NMR, -Log[inhibitor] (M) 6
[9] = 5HC DNA, NMR, -Log[inhibitor] (M) 6.5
[10] = 5HC DNA, NMR, -Log[inhibitor] (M) 7
[11] = 5HC DNA, NMR, -Log[inhibitor] (M) 7.5
[12] = IC50, 5mC DNA, NMR, 2OG decarboxylation with 20 µM 5mC DNA
[13] = IC50, No DNA, NMR, uncoupled 2OG decarboxylation, no DNA

## O=C(O)c1ccnc(C(=O)O)c1 [2,4-PDCA, 2,4-pyridinedicarboxylic acid]
[1]; 1H NMR
  potency change in the presence of non-substrate 5HC DNA: < 2 fold
[1]; 2OG decarboxylation with 20 µM 5HC DNA, read-out: IC50, 5HC DNA, NMR
  IC50: 4.27 µM
[1]; [3]
  normalised activity, %: -0.17% and 2.97%
[1]; 5HC DNA, NMR, -Log[inhibitor] (M) 3.5
  normalised activity, %: 6.05%
[1]; [4]
  normalised activity, %: 6.05% and 7.57%
[1]; [5]
  normalised activity, %: 13.51%
[1]; [6]
  normalised activity, %: 30.08%
[1]; [7]
  normalised activity, %: 63.79% and 61.71%
[1]; [8]
  normalised activity, %: 84.73% and 86.47%
[1]; [9]
  normalised activity, %: 94.82% and 93.19%
[1]; [10]
  normalised activity, %: 100.33%
[1]; [11]
  normalised activity, %: 99.56% and 98%
[1]; 5mC DNA, NMR, 2,4-PDCA series -Log[inhibitor] (M) 3
  normalised activity, %: 1.811% and 1.747%
[1]; 5mC DNA, NMR, -Log[inhibitor] (M) 3.47712
  normalised activity, %: 1.338% and 1.107%
[1]; 5mC DNA, NMR, -Log[inhibitor] (M) 3.95424
  normalised activity, %: 2.094% and 0.5576%
[1]; 5mC DNA, NMR, -Log[inhibitor] (M) 4.43136
  normalised activity, %: 2.845% and 5.31%
[1]; 5mC DNA, NMR, -Log[inhibitor] (M) 4.90848
  normalised activity, %: 7.1385% and 9.765%
[1]; 5mC DNA, NMR, -Log[inhibitor] (M) 5.38561
  normalised activity, %: 30.9766% and 31.0028%
[1]; 5mC DNA, NMR, -Log[inhibitor] (M) 5.86273
  normalised activity, %: 71.7609% and 72.2416%
[1]; 5mC DNA, NMR, -Log[inhibitor] (M) 6.33985
  normalised activity, %: 92.2674% and 93.2727%
[1]; 5mC DNA, NMR, -Log[inhibitor] (M) 6.81697
  normalised activity, %: 96.6317% and 94.5918%
[1]; 5mC DNA, NMR, -Log[inhibitor] (M) 7.29409
  normalised activity, %: 100.253% and 99.2143%
[1]; [12]
  IC50: 2.45 µM
[1]; [13]
  IC50: 8.13 µM
[1]; No DNA, NMR, -Log[inhibitor] (M) 3
  normalised activity, %: 1.858% and 5.513%
[1]; No DNA, NMR, -Log[inhibitor] (M) 3.47712
  normalised activity, %: 5.794% and 4.915%
[1]; No DNA, NMR, -Log[inhibitor] (M) 3.95424
  normalised activity, %: 6.819% and 9.688%
[1]; No DNA, NMR, -Log[inhibitor] (M) 4.43136
  normalised activity, %: 23.271% and 23.2057%
[1]; No DNA, NMR, -Log[inhibitor] (M) 4.90848
  normalised activity, %: 39.7721% and 42.1215%
[1]; No DNA, NMR, -Log[inhibitor] (M) 5.38561
  normalised activity, %: 73.0359% and 62.1963%
[1]; No DNA, NMR, -Log[inhibitor] (M) 5.86273
  normalised activity, %: 95.5986% and 84.3948%
[1]; No DNA, NMR, -Log[inhibitor] (M) 6.33985
  normalised activity, %: 102.544% and 92.4597%
[1]; No DNA, NMR, -Log[inhibitor] (M) 6.81697
  normalised activity, %: 101.45% and 102.432%
[1]; No DNA, NMR, -Log[inhibitor] (M) 7.29409
  normalised activity, %: 100.407% and 97.5514%
[2]; -Log[inhibitor] (M) 8.03235
  normalised activity, %: 118.908% and 105.933% and 106.512% and 100% and 103.458% and 100.779% and 97.3678%
[2]; read-out: IC50, 5mC ssDNA, AS
  IC50: 3.24 µM

## O=C(O)c1ccc(O)c2ncccc12 [IOX1, 5-carboxy-8-hydroxyquinoline]
[1]; 1H NMR
  potency change in the presence of non-substrate 5HC DNA: < 2 fold
[1]; [3]
  normalised activity, %: 3.36% and 6.05%
[1]; [4]
  normalised activity, %: 65.88% and 69.85%
[1]; [5]
  normalised activity, %: 102.42% and 107.78%
[1]; [6]
  normalised activity, %: 115.52% and 112.71%
[1]; [7]
  normalised activity, %: 111.12% and 108.5%
[1]; [8]
  normalised activity, %: 104.59% and 105.6%
[1]; [9]
  normalised activity, %: 111.93% and 98%
[1]; [10]
  normalised activity, %: 104.59% and 103.37%
[1]; [11]
  normalised activity, %: 102.45% and 101.86%
[1]; 5mC DNA substrate-saturating conditions, 1H NMR
  potency decreased relative to AS assay: 5 fold
[1]; IC50, 5HC DNA, NMR, 2OG decarboxylation with 20 µM 5HC DNA
  IC50: 110 µM
[1]; [12]
  IC50: 123 µM
[1]; [13]
  IC50: 57.5 µM
[2]
  IC50: 26.3 µM
[2]; -Log[inhibitor] (M) 4.00432
  normalised activity, %: -0.5677% and -0.5665% and -1.091%
[2]; -Log[inhibitor] (M) 4.5272
  normalised activity, %: 43.4249% and 52.8284% and 51.0837%
[2]; -Log[inhibitor] (M) 5.00432
  normalised activity, %: 78.4888% and 85.3739% and 75.186%
[2]; -Log[inhibitor] (M) 5.60638
  normalised activity, %: 80.6565% and 92.476% and 89.0303%
[2]; -Log[inhibitor] (M) 6.0945
  normalised activity, %: 91.4843% and 93.7065% and 96.6507%
[2]; -Log[inhibitor] (M) 6.61738
  normalised activity, %: 100.743% and 110.536% and 100.94%
[2]; -Log[inhibitor] (M) 7.0945
  normalised activity, %: 88.4496% and 111.251% and 97.2074%
[2]; -Log[inhibitor] (M) 7.69656
  normalised activity, %: 87.9129% and 106.34% and 94.3692%
[2]; -Log[inhibitor] (M) 8.20844
  normalised activity, %: 99.4426% and 116.115% and 101.926%
[2]; -Log[inhibitor] (M) 8.73132
  normalised activity, %: 100% and 102.574%
